PubChem BioAssay AID248 (DTP/NCI, 2004)
Where “and” joins values, the source holds several entries; their conditions need not be identical. Equal entries are not always repeated. Inconclusive results and toxic doses are left out.

Tested on: L1210 leukemia ip in BDF1 mice, survival T/C
Assay: NCI In Vivo Anticancer Drug Screen. Data for tumor model L1210 Leukemia (intraperitoneal) in B6D2F1 (BDF1) mice
Details: endpoint: mean survival time, higher = longer survival
Method in brief: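 Mice bearing the transplanted tumor received compound or vehicle. Survival of the treated group was divided by that of the vehicle-treated control group to give the ratio.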

Structure (SMILES): NC(C/[N+]([O-])=N/O)C(=O)O (configuration not stated)
- T/C (dose: 6.25 mg/kg/injection, schedule: Q01DX009 (ip), vehicle: saline): 117 % of control and 118 % of control
- T/C (dose: 8.0 mg/kg/injection, schedule: Q03HX016 (ip), vehicle: saline): 111 % of control
- T/C (dose: 8.0 mg/kg/injection, schedule: Q03HX024 (ip), vehicle: saline): 113 % of control
- T/C (dose: 12.5 mg/kg/injection, schedule: Q01DX009 (ip), vehicle: saline): 117 % of control and 122 % of control and 123 % of control
- T/C (dose: 16.0 mg/kg/injection, schedule: Q03HX008 (ip), vehicle: saline): 111 % of control
- T/C (dose: 16.0 mg/kg/injection, schedule: Q03HX016 (ip), vehicle: saline): 116 % of control
- T/C (dose: 16.0 mg/kg/injection, schedule: Q03HX024 (ip), vehicle: saline): 118 % of control
- T/C (dose: 20.0 mg/kg/injection, schedule: Q01DX009 (ip), vehicle: saline): 118 % of control
- T/C (dose: 25.0 mg/kg/injection, schedule: Q01DX001 (ip), vehicle: carboxymethylcellulose (CMC)): 112 % of control
- T/C (dose: 25.0 mg/kg/injection, schedule: Q01DX009 (ip), vehicle: saline): 120 % of control and 123 % of control
- T/C (dose: 30.0 mg/kg/injection, schedule: Q01DX009 (ip), vehicle: saline with Tween-80): 111 % of control
- T/C (dose: 32.0 mg/kg/injection, schedule: Q01DX009 (ip), vehicle: saline): 116 % of control
- T/C (dose: 32.0 mg/kg/injection, schedule: Q01DX009 (sc), vehicle: saline): 117 % of control
- T/C (dose: 32.0 mg/kg/injection, schedule: Q03HX008 (ip), vehicle: saline): 116 % of control
- T/C (dose: 32.0 mg/kg/injection, schedule: Q03HX024 (ip), vehicle: saline): 121 % of control
- T/C (dose: 40.0 mg/kg/injection, schedule: Q01DX009 (ip), vehicle: saline): 121 % of control
- T/C (dose: 44.0 mg/kg/injection, schedule: Q01DX009 (ip), vehicle: saline with Tween-80): 108 % of control
- T/C (dose: 50.0 mg/kg/injection, schedule: Q01DX001 (ip), vehicle: carboxymethylcellulose (CMC)): 106 % of control
- T/C (dose: 54.0 mg/kg/injection, schedule: Q04DX003 (ip), vehicle: saline with Tween-80): 110 % of control
- T/C (dose: 64.0 mg/kg/injection, schedule: Q01DX001 (oral), vehicle: saline): 107 % of control
- T/C (dose: 64.0 mg/kg/injection, schedule: Q01DX009 (ip), vehicle: saline): 123 % of control
- T/C (dose: 64.0 mg/kg/injection, schedule: Q01DX009 (oral), vehicle: saline): 92 % of control
- T/C (dose: 64.0 mg/kg/injection, schedule: Q01DX009 (sc), vehicle: saline): 118 % of control
- T/C (dose: 64.0 mg/kg/injection, schedule: Q03HX008 (ip), vehicle: saline): 116 % of control
- T/C (dose: 64.0 mg/kg/injection, schedule: Q03HX024 (ip), vehicle: saline): 122 % of control
- T/C (dose: 64.0 mg/kg/injection, schedule: Q04DX003 (ip), vehicle: saline): 117 % of control
- T/C (dose: 64.0 mg/kg/injection, schedule: Q08DX002 (ip), vehicle: saline): 117 % of control
- T/C (dose: 67.0 mg/kg/injection, schedule: Q01DX009 (ip), vehicle: saline with Tween-80): 104 % of control
- T/C (dose: 100.0 mg/kg/injection, schedule: Q01DX001 (ip), vehicle: carboxymethylcellulose (CMC)): 110 % of control
- T/C (dose: 100.0 mg/kg/injection, schedule: Q04DX003 (ip), vehicle: saline with Tween-80): 123 % of control
- T/C (dose: 128.0 mg/kg/injection, schedule: Q01DX001 (ip), vehicle: saline): 118 % of control
- T/C (dose: 128.0 mg/kg/injection, schedule: Q01DX001 (oral), vehicle: saline): 103 % of control
- T/C (dose: 128.0 mg/kg/injection, schedule: Q01DX001 (sc), vehicle: saline): 104 % of control
- T/C (dose: 128.0 mg/kg/injection, schedule: Q01DX009 (ip), vehicle: saline): 108 % of control
- T/C (dose: 128.0 mg/kg/injection, schedule: Q01DX009 (sc), vehicle: saline): 102 % of control
- T/C (dose: 128.0 mg/kg/injection, schedule: Q03HX008 (ip), vehicle: saline): 119 % of control
- T/C (dose: 128.0 mg/kg/injection, schedule: Q03HX016 (ip), vehicle: saline): 122 % of control
- T/C (dose: 128.0 mg/kg/injection, schedule: Q04DX003 (ip), vehicle: saline): 114 % of control
- T/C (dose: 128.0 mg/kg/injection, schedule: Q08DX002 (ip), vehicle: saline): 112 % of control
- T/C (dose: 150.0 mg/kg/injection, schedule: Q01DX009 (ip), vehicle: saline with Tween-80): 92 % of control
- T/C (dose: 160.0 mg/kg/injection, schedule: Q01DX009 (ip), vehicle: saline): 116 % of control
- T/C (dose: 187.0 mg/kg/injection, schedule: Q04DX003 (ip), vehicle: saline with Tween-80): 156 % of control
